The target in one experiment is T1, TAK1-TAB1 fusion protein (Homo sapiens, UniProt O43318).
T1 construct: purchased Upstate 14-600
T1 sequence (O43318 with tags, fused parts or gaps limits assumed): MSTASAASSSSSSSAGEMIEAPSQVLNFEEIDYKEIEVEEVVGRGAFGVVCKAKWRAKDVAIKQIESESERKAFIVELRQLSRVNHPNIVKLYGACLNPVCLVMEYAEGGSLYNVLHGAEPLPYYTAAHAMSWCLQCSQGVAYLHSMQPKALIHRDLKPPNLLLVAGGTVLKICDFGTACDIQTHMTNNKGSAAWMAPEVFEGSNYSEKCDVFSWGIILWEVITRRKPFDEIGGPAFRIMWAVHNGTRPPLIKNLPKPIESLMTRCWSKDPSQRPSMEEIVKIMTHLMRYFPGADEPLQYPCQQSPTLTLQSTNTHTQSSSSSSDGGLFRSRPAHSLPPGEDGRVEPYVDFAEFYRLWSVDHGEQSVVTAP
The experiment can be described thus: In vitro TAK1 kinase assay (33P-ATP, casein substrate). The format is biochemical. The note with it: semi-quantitative score, at least two independent experiments. A digest of the protocol:
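Radiometric assay with active TAK1-TAB1 fusion protein (0.5 mU), 0.1 mg/mL casein, ATP at 5 µM plus [33P]-γ-ATP, in 10 mM MOPS pH 7.0, 1 mM EDTA. Reactions ran 90 min at 30 °C, were stopped with phosphoric acid and filter-counted; percent inhibition from ≥2 experiments gave semi-quantitative potency scores.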

Experiment [1] concerns MMP1 expression from activated SFs (RASF). Description: MMP assay: MMP1 expression (ELISA) by TNF-α-triggered RASFs. The format is cell-based. The note with it: RASF triggered with TNFα, MMP1 ELISA after 48 hrs, semi-quantitative score. The gist of the method: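 Rheumatoid arthritis synovial fibroblasts (passage 10–12) were preincubated 90 min with compound in M199 with 1% FBS, then stimulated with TNF-α (10 ng/mL final) or complex trigger (12.5% final) for 48 h. MMP1 in the supernatant was quantified by sandwich luminescence ELISA. Controls were stimulated cells with 0.2% DMSO vehicle and unstimulated cells.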
(In general: ELISA stands for enzyme-linked immunosorbent assay.)

The values that follow come from patent US20120010206A1, “IMIDAZOLOPYRIDINE COMPOUNDS USEFUL FOR THE TREATMENT OF DEGENERATIVE AND INFLAMMATORY DISEASES” (priority 2006, published 2012).

As a reminder, the IC50 is the concentration needed to halve the response being measured. Low readings indicate greater potency, high ones weaker potency. A word on the EC50: it is the midpoint of the concentration-response curve.

Each structure is given as a SMILES string.

`CC(C)CCN1CCN(c2ccc(Nc3ccc(-c4ccc(C(N)=O)cc4)n4ccnc34)cc2)CC1` [Compound 79]: the IC50 on TAK1-TAB1 fusion protein was in the range of 0.101 to 1 µM. Further, in experiment [1], the EC50 is over 3 µM.

Take `NC(=O)c1ccc(-c2ccc(Nc3ccc(N4CCOCC4)cc3)c3nccn23)cc1` [Compound 1, 4-[8-(4-Morpholin-4-yl-phenylamino)-imidazo[1,2-a]pyridin-5-yl]-benzamide]: the IC50 against TAK1-TAB1 fusion protein lay within 1 to 3 µM. Moreover, the EC50 in experiment [1] lay within 0.101 to 1 µM.

The molecule `O=C1NCc2cc(-c3ccc(Nc4ccc(C(=O)N5CCOCC5)cc4)c4nccn34)ccc21` [Compound 15, 5-(8-(4-(morpholine-4-carbonyl)phenyl-amino)imidazo[1,2-a]pyridin-5-yl)isoindolin-1-one] registered an IC50 at TAK1-TAB1 fusion protein of 0.101 to 1 µM. This molecule registered an EC50 in experiment [1] of over 3 µM.

On to `CS(=O)(=O)c1ccc(Nc2ccc(-c3ccc(C(N)=O)c(F)c3)n3ccnc23)cc1` [Compound 72], for which, on TAK1-TAB1 fusion protein, the IC50 was in the range of 1 to 3 µM. The molecule also showed an EC50 in experiment [1] of 1 to 3 µM.

For the molecule `O=C1NCc2cc(-c3ccc(Nc4ccc(N5CCOCC5)cc4)c4nccn34)ccc21` [Compound 13, 5-(8-(4-morpholinophenyl-amino)imidazo [1,2-a]pyridin-5-yl)isoindolin-1-one], at TAK1-TAB1 fusion protein, the IC50 is 0.101 to 1 µM. The molecule also gave an EC50 in experiment [1] of 1 to 3 µM.

On TAK1-TAB1 fusion protein, `O=c1cc(-c2ccc(Nc3ccc(N4CCOCC4)cc3)c3nccn23)cc[nH]1` [Compound 68] had an IC50 of 0.101 to 1 µM. The EC50 in experiment [1] is 0.101 to 1 µM.

Regarding `O=C1NCc2cc(-c3ccc(Nc4ccc(S(=O)(=O)N5CCOCC5)cc4)c4nccn34)ccc21` [Compound 16, 5-(8-(4-(morpholinosulfonyl)phenylamino)imidazo[1,2-a]pyridin-5-yl)isoindolin-1-one], the IC50 at TAK1-TAB1 fusion protein lay in the range of 0.101 to 1 µM. In addition, the EC50 in experiment [1] was over 3 µM.

At TAK1-TAB1 fusion protein, `CC(C)N1CCN(c2ccc(Nc3ccc(-c4cn[nH]c4)n4ccnc34)cc2F)CC1` [Compound 5, [3-Fluoro-4-(4-isopropyl-piperazin-1-yl)-phenyl]-[5-(1H-pyrazol-4-yl)-imidazo[1,2-a]pyridin-8-yl]-amine] gave an IC50 of 0.101 to 1 µM. Besides, the EC50 in experiment [1] is 1 to 3 µM.

In turn, `CC1CN(c2ccc(Nc3ccc(-c4cc[nH]c(=O)c4)n4ccnc34)cc2)CC(C)N1` (stereo not drawn) [Compound 124, 4-{8-[4-(3,5-Dimethyl-piperazin-1-yl)-phenylamino]-imidazo[1,2-a]pyridin-5-yl}-1H-pyridin-2-one] showed an IC50 at TAK1-TAB1 fusion protein of 0.101 to 1 µM. For the same molecule, the EC50 in experiment [1] fell in the range of 1 to 3 µM.

With `O=C(NCCN1CCOCC1)c1ccc(Nc2ccc(-c3ccc4c(c3)CNC4=O)n3ccnc23)cc1` [Compound 43, N-(2-morpholinoethyl)-4-(5-(1-oxoisoindolin-5-yl)imidazo[1,2-a]pyridin-8-ylamino)benzamide], on TAK1-TAB1 fusion protein, the IC50 is 0.101 to 1 µM. Also, the EC50 in experiment [1] is over 3 µM.

For `O=c1cc(-c2ccc(Nc3ccc(N4CCN(C5CC5)CC4)cc3)c3nccn23)cc[nH]1` [Compound 88], the IC50 at TAK1-TAB1 fusion protein fell in the range of 1 to 3 µM. The EC50 in experiment [1] is 1 to 3 µM.

At TAK1-TAB1 fusion protein, `c1cn2c(-c3cn[nH]c3)ccc(Nc3ccc(N4CCN(C5CCC5)CC4)cc3)c2n1` [Compound 82] returned an IC50 of 0.101 to 1 µM. This molecule had an EC50 in experiment [1] of over 3 µM.

Molecule `O=c1cc(-c2ccc(Nc3ccc(N4CCC(N5CCCCC5)CC4)cc3)c3nccn23)cc[nH]1` [Compound 120, 4-[8-(4-[1,4′]Bipiperidinyl-1′-yl-phenylamino)-imidazo[1,2a]pyridi-5-yl]-1H-pyridin-2-one] had an IC50 on TAK1-TAB1 fusion protein of 0.101 to 1 µM. Besides, the EC50 in experiment [1] was in the range of 0.101 to 1 µM.

For the molecule `c1cn2c(-c3cn[nH]c3)ccc(Nc3ccc(N4CCOCC4)cc3)c2n1` [Compound 2, (4-Morpholin-4-yl-phenyl)-[5-(1H-pyrazol-4-yl)-imidazo[1,2-a]pyridin-8-yl]-amine], the IC50 on TAK1-TAB1 fusion protein lay within 0.101 to 1 µM. In experiment [1], this molecule displayed an EC50 of 0.101 to 1 µM.

As for `CCN(C)CCN(CC)C(=O)c1ccc(Nc2ccc(-c3ccc4c(c3)CNC4=O)n3ccnc23)cc1` [Compound 47, N-ethyl-N-(2-(ethyl(methyl)amino)ethyl)-4-(5-(1-oxoisoindolin-5-yl)imidazo[1,2-a]pyridin-8-ylamino)benzamide], at TAK1-TAB1 fusion protein, the IC50 is under 0.1 µM. This molecule had an EC50 in experiment [1] of over 3 µM.

`CN(C)S(=O)(=O)c1ccc(Nc2ccc(-c3ccc4c(c3)CNC4=O)n3ccnc23)cc1` [Compound 20, N,N-dimethyl-4-(5-(1-oxoisoindolin-5-yl)imidazo[1,2-a]pyridin-8-ylamino)benzene sulfonamide] returned an IC50 against TAK1-TAB1 fusion protein of 0.101 to 1 µM. This molecule showed an EC50 in experiment [1] of 0.101 to 1 µM.

For the molecule `CN1CCN(c2ccc(Nc3ccc(-c4ccc(C(N)=O)cc4)n4ccnc34)cc2)CC1` [Compound 3, 4-{8-[4-(4-Methyl-piperazin-1-yl)-phenylamino]-imidazo[1,2-a]pyridin-5-yl}-benzamide], on TAK1-TAB1 fusion protein, the IC50 was in the range of 0.101 to 1 µM. The EC50 in experiment [1] is under 0.1 µM.

`O=C1NCc2cc(-c3ccc(Nc4ccc(S(=O)(=O)c5ccccc5)cc4)c4nccn34)ccc21` [Compound 21, 5-(8-(4-(phenylsulfonyl)phenylamino)imi-dazo[1,2-a]pyridin-5-yl)isoindolin-1-one] gave an IC50 against TAK1-TAB1 fusion protein of 0.101 to 1 µM. The EC50 in experiment [1] is 0.101 to 1 µM.

With `CN(C)CCNC(=O)c1ccc(Nc2ccc(-c3ccc4c(c3)CNC4=O)n3ccnc23)cc1` [Compound 36, N-(2-(dimethylamino)ethyl)-4-(5-(1-oxoisoindolin-5-yl)imidazo[1,2-a]pyridin-8-ylamino)benzamide], the IC50 against TAK1-TAB1 fusion protein was in the range of 0.101 to 1 µM. The EC50 in experiment [1] is over 3 µM.

The molecule `O=c1cc(-c2ccc(Nc3ccc(N4CCN(C5CCC5)CC4)cc3)c3nccn23)cc[nH]1` [Compound 85] registered an IC50 at TAK1-TAB1 fusion protein of 0.101 to 1 µM. The molecule further came in with an EC50 in experiment [1] of 0.101 to 1 µM.

At TAK1-TAB1 fusion protein, `CCC(CC)N1CCN(c2ccc(Nc3ccc(-c4cn[nH]c4)n4ccnc34)cc2)CC1` [Compound 89] yielded an IC50 of 0.101 to 1 µM. Moreover, in experiment [1], the EC50 is over 3 µM.

Take `FC(F)CN1CCN(c2ccc(Nc3ccc(-c4cn[nH]c4)n4ccnc34)cc2)CC1` [Compound 109, {4-[4-(2,2-Difluoro-ethyl)-piperazin-1-yl]-phenyl}-[5-(1H-pyrazol-4-yl)-imidazo[1,2-a]pyridin-8-yl]-amine]: the IC50 at TAK1-TAB1 fusion protein is 1 to 3 µM. This molecule also displayed an EC50 in experiment [1] of 0.101 to 1 µM.

As to `c1cn2c(-c3cn[nH]c3)ccc(Nc3ccc(N4CCSCC4)cc3)c2n1` [Compound 111, [5-(1H-Pyrazol-4-yl)-imidazo[1,2-a]pyridin-8-yl]-(4-thiomorpholin-4-yl-phenyl)-amine], the IC50 against TAK1-TAB1 fusion protein lay in the range of 1 to 3 µM. The molecule further returned an EC50 in experiment [1] of 0.101 to 1 µM.

`O=c1cc(-c2ccc(Nc3ccc(C4CCN(CCF)CC4)cc3)c3nccn23)cc[nH]1` [Compound 108, 4-(8-{4-[1-(2-Fluoro-ethyl)-piperidin-4-yl]-phenylamino}-imidazo[1,2-a]pyridin-5-yl)-1H-pyridin-2-one] came in with an IC50 on TAK1-TAB1 fusion protein of 0.101 to 1 µM. In addition, the EC50 in experiment [1] was in the range of 1 to 3 µM.

On TAK1-TAB1 fusion protein, `CC(C)N1CCN(c2ccc(Nc3ccc(-c4cn[nH]c4)n4ccnc34)cc2)CC1` [Compound 6, [4-(4-Isopropyl-piperazin-1-yl)-phenyl]-[5-(1H-pyrazol-4-yl)-imidazo[1,2-a]pyridin-8-yl]-amine] came in with an IC50 of 0.101 to 1 µM. Besides, the EC50 in experiment [1] fell in the range of 0.101 to 1 µM.

On TAK1-TAB1 fusion protein, `CC(C)N1CCN(c2ccc(Nc3ccc(-c4csc(C(N)=O)c4)n4ccnc34)cc2)CC1` [Compound 8, 4-{8-[4-(4-Isopropyl-piperazin-1-yl)-phenylamino]-imidazo[1,2-a]pyridin-5-yl}-thiophene-2-carboxylic acid amide] showed an IC50 of 0.101 to 1 µM. For the same molecule, the EC50 in experiment [1] was 0.101 to 1 µM.

Turning to `CC(C)N1CCN(c2ccc(Nc3ccc(-c4ccc5c(c4)CNC5=O)n4ccnc34)cc2Cl)CC1` [Compound 29, 5-(8-(3-chloro-4-(4-isopropyl-piperazin-1-yl)phenylamino)imidazo[1,2-a]pyridin-5-yl)isoindolin-1-one], the IC50 on TAK1-TAB1 fusion protein lay within 0.101 to 1 µM. In experiment [1], the EC50 was over 3 µM.
